Measurements as given in patent US20080171059A1, “METHODS AND COMPOSITIONS FOR INCREASED PRIMING OF T-CELLS THROUGH CROSS-PRESENTATION OF EXOGENOUS ANTIGENS” (priority 2006, published 2008).

Key:
[1] = tested on: CD8+ T cell line specifically recognizing the N9V/HLA-A*0201 complex; experiment: Cross-presentation assay: yeast-fed monocyte-derived DCs stimulate IFNγ secretion in co-cultured N9V-specific CD8+ T cells; type: cell-based, human
Procedure: An interferon gamma (IFNY) secretion cell capture FACS assay was performed on the T cells to quantify the percentage of cells that had been activated as a result of cross-presentation by the DCs.
The monocytes were aliquoted into vials and cryopreserved in 90% fetal bovine serum (FBS), 10% DMSO. […] Unless otherwise indicated, media components were from Hyclone (Logan, Utah); low endotoxin products were chosen where available. 4-5×10^6 monocytes were cultured per well of a 6-well plate in 2.5 ml C10 medium supplemented with 1000 U/ml each of interleukin-4 and granulocyte-macrophage colony stimulating factor (C10GF; cytokines from R & D Systems, Minneapolis, Minn.). After 2 and 4 days of culture, each well was topped up with 0.5 ml C10GF; after 6 days of culture, floating and loosely adherent monocyte-derived DCs were harvested by gentle resuspension.
Cross-presentation Assay After 6 days of differentiation, monocyte-derived DCs were seeded in 96-well round bottom plates at 1 or 2×10^5 cells in 200 μl C10GF per well. Appropriate numbers of yeast cells (measured by optical density at 600 nm with 10D≈10^7/ml) were rendered non-viable by UV-irradiation (2×1000 J/m^2 in a Stratalinker, Stratagene, La Jolla, Calif.), pelleted by centrifugation and added to the DCs. For inhibition experiments, DCs were pre-incubated with lactacystin (5 μM; Calbiochem, San Diego, Calif.) or chloroquine (25 μM) for one hour before yeast samples were introduced. […] Following 4 h of co-culture, the contents of each well were transferred to tubes for labeling with Miltenyi's IFNY secretion assay kit (Bergisch Gladbach, Germany) according to the recommended protocol. […] The percentage of CD8^+ cells that were IFNY+ was determined by flow cytometry (Coulter Epics XL, Fullerton, Calif. or BD FACSCalibur). The cut-off PE fluorescence was set for each experiment such that about 0.5% of T cells were IFNY+ in a negative control sample (no yeast or peptide).
Surface Display Antigen Dose Normalization In experiments where different linkers were used to surface-display antigen, several cultures of each yeast sample were induced, and cultures with mean antigen levels within 10% of each other were selected to minimize the effect of variable antigen dose on cross-presentation. […] Therefore, each yeast sample was mixed with the appropriate amount of EBY100 yeast to normalize the antigen dose while maintaining the 20:1 ratio of yeast to DCs.

Cathepsin S = Cathepsin S (Homo sapiens, UniProt P25774); experiment: Cleavage of antigen sequences by Cathepsin S; type: biochemical; details: cleavage positions MQ|AE and NLVPMVA|TV
Cathepsin S, sequence (P25774 115-331): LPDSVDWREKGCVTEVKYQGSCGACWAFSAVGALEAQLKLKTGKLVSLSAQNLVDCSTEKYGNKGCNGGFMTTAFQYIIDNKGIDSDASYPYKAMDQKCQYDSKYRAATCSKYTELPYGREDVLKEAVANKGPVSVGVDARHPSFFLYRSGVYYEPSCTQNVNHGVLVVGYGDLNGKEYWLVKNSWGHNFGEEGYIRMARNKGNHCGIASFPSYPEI

CC(=O)N[C@@H](CSC(=O)[C@]1([C@@H](O)C(C)C)NC(=O)[C@H](C)[C@@H]1O)C(=O)O [lactacystin]
Effect of inhibitor on cross-presentation of surface-displayed antigen ([1]; EBYN9V yeast 20:1, lactacystin 5 μM or chloroquine 25 μM added one hour before yeast): strongly inhibited
Effect of inhibitor on cross-presentation of strains with deleted, C1 and (C1)4 linkers ([1]; all three integrated strains, lactacystin 5 μM or chloroquine 25 μM): inhibited
Effect of inhibitor on cross-presentation of intracellular antigen ([1]; yeast expressing Aga2p-N9V intracellularly 20:1, lactacystin 5 μM or chloroquine 25 μM): inhibited

ARNLVPMVATVQGQN [15-mer extended CMV pp 65 peptide containing N9V, positive control]
Percentage of IFNγ+ T cells ([1]; positive control, 1 μM extended peptide): 45-70%

NLVPMVATV [cytomegalovirus epitope, HLA-A*0201-restricted peptide derived from CMV phosphoprotein pp 65]
Cleavage by Cathepsin S (Cathepsin S): cleaved rapidly
